{"source": "paper PMC5869554", "about": "(CPT: Pharmacometrics & Systems Pharmacology, 2017)", "key": {"[1]": {"conditions": "ref 8, 9; cited from earlier work"}, "[2]": {"assay": "pKa determination", "type": "physicochemical"}, "[3]": {"assay": "Solubility in phosphate buffer at pH 7.4", "type": "physicochemical"}, "[4]": {"assay": "LogD7.4, octanol/water partition coefficient", "type": "physicochemical", "conditions": "for LogD7.4: aqueous phase at pH7.4; for logD: pH 7.4"}, "[5]": {"test_system": "guinea pig trachea", "conditions": "cited from earlier work"}, "[6]": {"test_system": "human bronchi", "conditions": "cited from earlier work"}, "[7]": {"test_system": "forced expiratory volume in 1 second (FEV1)", "assay": "Clinical lung function", "type": "in vivo, human", "conditions": "once daily dosing; glycopyrronium 25 µg, indacaterol 300 µg, batefenterol 800 µg; COPD patients"}, "[8]": {"conditions": "phosphate buffer, pH 7.4, aqueous buffer"}, "[9]": {"conditions": "pKa, second printed value (dibase)"}}, "note": "Read-outs that look alike come from different tables or passages of the source.", "data": [{"smiles": "CCN(CC)CCN(CCNCCc1ccc(O)c2[nH]c(=O)sc12)C(=O)CCOCCc1cccc2ccccc12", "note": "[AZD3199]", "values": [{"measurement": "lung half lives", "setting": "[1]", "value": "in the order of days"}, {"measurement": "pKa", "setting": "[2]", "value": 9.5}, {"measurement": "pKa", "setting": "[2]; second printed value (dibase)", "value": 7.1}, {"measurement": "solubility", "setting": "[3]; phosphate buffer at pH 7.4", "value": "2,510 µM"}, {"measurement": "LogD7.4", "setting": "[4]", "value": 2.3}, {"measurement": "In vitro guinea pig trachea pIC50", "setting": "[5]; ref 19", "value": 8.019}]}, {"smiles": "CC(C)(C)NCC(O)c1ccc(O)c(CO)c1", "note": "(stereo not shown) [Salbutamol]", "values": [{"measurement": "In vitro human bronchi pIC50", "setting": "[6]; ref 21", "value": 6.4}, {"measurement": "In vitro human bronchi pIC50", "setting": "[6]; ref 22", "value": 6.9}, {"measurement": "pKa", "setting": "[2]; pKa", "value": 9.2}, {"measurement": "solubility", "setting": "[3]; [8]", "value": "> 2900", "unit": "µM"}, {"measurement": "In vitro guinea pig trachea pIC50", "setting": "[5]; ref 19", "value": 6.719}]}, {"smiles": "CCc1cc2c(cc1CC)CC(NC[C@H](O)c1ccc(O)c3[nH]c(=O)ccc13)C2", "note": "[Indacaterol]", "values": [{"measurement": "In vitro human bronchi pIC50", "setting": "[6]; ref 22", "value": 6.6}, {"measurement": "In vitro human bronchi pIC50", "setting": "[6]; ref 24", "value": 7.4}, {"measurement": "associated increase in FEV1, single to multiple dosing", "setting": "[7]", "value": "around 40 mL"}, {"measurement": "pKa", "setting": "[2]; pKa", "value": 8.3}, {"measurement": "solubility", "setting": "[3]; [8]", "value": 25, "unit": "µM"}, {"measurement": "logD", "setting": "[4]", "value": 2.8}, {"measurement": "In vitro guinea pig trachea pIC50", "setting": "[5]; ref 19", "value": 7.719}]}, {"smiles": "CNC(=O)c1cc(Cl)c(OC(C)(C)C(=O)O)cc1OC[C@@H](O)CN1CCC2(CC1)Cc1cc(Cl)ccc1O2", "note": "[AZD4818]", "values": [{"measurement": "pKa", "setting": "[2]; pKa", "value": 8.4}, {"measurement": "pKa", "setting": "[2]; [9]", "value": 6.2}, {"measurement": "solubility", "setting": "[3]; [8]", "value": "> 2500", "unit": "µM"}, {"measurement": "logD", "setting": "[4]", "value": 0.9}]}, {"smiles": "C[N+]1(C)[C@@H]2C[C@@H](OC(=O)C(O)(c3cccs3)c3cccs3)C[C@H]1[C@@H]1O[C@@H]12", "note": "[Tiotropium]", "values": [{"measurement": "In vitro human bronchi pIC50", "setting": "[6]; ref 25", "value": 9.525}, {"measurement": "solubility", "setting": "[3]; [8]", "value": "> 2800", "unit": "µM"}, {"measurement": "In vitro guinea pig trachea pIC50", "setting": "[5]; ref 25", "value": 9.125}]}, {"smiles": "COc1ccc(CC(C)NCC(O)c2ccc(O)c(NC=O)c2)cc1", "note": "(stereo not shown) [Formoterol]", "values": [{"measurement": "In vitro human bronchi pIC50", "setting": "[6]; ref 23", "value": 8.8}, {"measurement": "In vitro guinea pig trachea pIC50", "setting": "[5]; ref 19", "value": 8.819}]}, {"smiles": "C[N+]1(C)CCC(OC(=O)C(O)(c2ccccc2)C2CCCC2)C1", "note": "(stereo not shown) [Glycopyrronium]", "values": [{"measurement": "In vitro human bronchi pIC50", "setting": "[6]; ref 24", "value": 8.4}, {"measurement": "In vitro human bronchi pIC50", "setting": "[6]; ref 25", "value": 10.4}, {"measurement": "associated increase in FEV1, single to multiple dosing", "setting": "[7]", "value": "around 40 mL"}, {"measurement": "In vitro guinea pig trachea pIC50", "setting": "[5]; ref 25", "value": 9.025}]}, {"smiles": "CC(C)(C)NCC(O)c1cc(O)cc(O)c1", "note": "(stereo not shown) [Terbutaline]", "values": [{"measurement": "pKa", "setting": "[2]; pKa", "value": 9.3}, {"measurement": "solubility", "setting": "[3]; [8]", "value": 6830, "unit": "µM"}, {"measurement": "logD", "setting": "[4]", "value": -1.5}]}, {"smiles": "CC(C)[N+]1(C)[C@@H]2CC[C@H]1C[C@@H](OC(=O)C(CO)c1ccccc1)C2", "note": "(stereo partly shown) [Ipratropium]", "values": [{"measurement": "In vitro human bronchi pIC50", "setting": "[6]; ref 25", "value": 9.525}, {"measurement": "In vitro guinea pig trachea pIC50", "setting": "[5]; ref 25", "value": 8.625}]}, {"smiles": "COc1cc(NC(=O)CCN2CCC(OC(=O)Nc3ccccc3-c3ccccc3)CC2)c(Cl)cc1CNC[C@H](O)c1ccc(O)c2[nH]c(=O)ccc12", "note": "[Batefenterol, (R)‐1‐(3‐((2‐chloro‐4‐(((2‐hydroxy‐2‐(8‐hydroxy‐2‐oxo‐1,2‐dihydroquinolin‐5‐yl)ethyl)amino)methyl)‐5‐methoxyphenyl)amino)‐3‐oxopropyl)piperidin‐4‐yl [1,1'‐biphenyl]‐2‐ylcarbamate]", "values": [{"measurement": "lung half lives", "setting": "[1]", "value": "in the order of days"}, {"measurement": "associated increase in FEV1, single to multiple dosing", "setting": "[7]", "value": "around 100 mL"}, {"measurement": "pKa", "setting": "[2]; pKa", "value": 10}, {"measurement": "pKa", "setting": "[2]; [9]", "value": 7.3}, {"measurement": "solubility", "setting": "[3]; [8]", "value": 28, "unit": "µM"}, {"measurement": "logD", "setting": "[4]", "value": 3.1}, {"measurement": "In vitro guinea pig trachea pIC50", "setting": "[5]; ref 26", "value": 8.026}]}, {"smiles": "OCc1cc(C(O)CNCCCCCCOCCCCc2ccccc2)ccc1O", "note": "(stereo not shown) [Salmeterol]", "values": [{"measurement": "In vitro human bronchi pIC50", "setting": "[6]; ref 21", "value": 7.3}, {"measurement": "In vitro human bronchi pIC50", "setting": "[6]; ref 22", "value": 8.1}, {"measurement": "pKa", "setting": "[2]; pKa", "value": 9.1}, {"measurement": "solubility", "setting": "[3]; [8]", "value": "> 380", "unit": "µM"}, {"measurement": "logD", "setting": "[4]", "value": 2.2}]}, {"smiles": "CC(C)c1ncc(C(=O)N2CCOC3(CCN(Cc4ccc(F)c(CCNC[C@H](O)c5ccc(O)c6[nH]c(=O)sc56)c4)CC3)C2)s1", "note": "[AZD2115]", "values": [{"measurement": "pKa", "setting": "[2]", "value": 8.7}, {"measurement": "pKa", "setting": "[2]; second printed value (dibase)", "value": 7.6}, {"measurement": "solubility", "setting": "[3]; phosphate buffer at pH 7.4", "value": 650, "unit": "µM"}, {"measurement": "LogD7.4", "setting": "[4]", "value": 2.1}]}]}
